Source: ChEMBL document CHEMBL1133990, “8-Amido-Bearing pseudomycin B (PSB) analogue: novel antifungal agents” (2001)
≈ marks a conversion by molar mass, not a printed value.

Assays:
[1] = tested on: Mus musculus; experiment: Effective dose required to cure 50% of fungal infection in mice administered intraperitoneally tested in vivo; type: functional
[2] = tested on: Aspergillus fumigatus; experiment: Concentration required to inhibit 90-100% of visible fungal growth in Aspergillus fumigatus (WM1) tested in vitro; type: functional
[3] = tested on: Mus musculus; experiment: Ability to induce tail vein irritation in mice administered intravenously determined by tail vein assay; Activity- clean; type: functional, organism-based
[4] = tested on: Cryptococcus neoformans; experiment: Concentration required to inhibit 90-100% of visible fungal growth in (M1 106) tested in vitro; type: functional
[5] = tested on: Candida albicans; experiment: Concentration required to inhibit 90-100% of visible fungal growth in Candida albicans (A26) tested in vitro; type: functional
[6] = tested on: Mus musculus; experiment: Ability to induce tail vein irritation in mice administered intravenously determined by tail vein assay; Activity- Positive; type: functional, organism-based

C/C=C1\NC(=O)[C@H]([C@H](C)O)NC(=O)[C@H](CCN)NC(=O)[C@H](CCCCN)NC(=O)[C@H](CC(=O)O)NC(=O)[C@@H](CCN)NC(=O)[C@@H](NC(=O)C[C@H](O)CCCCCCCCCCC)COC(=O)[C@H]([C@H](O)CCl)NC(=O)[C@H]([C@H](O)C(=O)NC(Cc2ccccc2)C(=O)OC)NC1=O (some centres undefined) was tested, and the ED50 [1] was > 20 mg/kg, the MIC [2] was > 20 µg/mL and the Activity [3] was “Activity- clean”. The MIC [4] was 1.25 µg/mL (≈ 0.913 µM) and the MIC [5] was 10 µg/mL (≈ 7.3 µM).
In the case of C/C=C1/NC(=O)[C@H]([C@H](C)O)NC(=O)[C@H](CCN)NC(=O)[C@H](CCCCN)NC(=O)[C@H](CC(=O)O)NC(=O)[C@@H](CCN)NC(=O)[C@@H](NC(=O)C[C@H](O)CCCCCCCCCCC)COC(=O)[C@H]([C@H](O)CCl)NC(=O)[C@H]([C@H](O)C(=O)NC)NC1=O, the ED50 [1] is reported as > 20 mg/kg, the MIC [2] is reported as > 20 µg/mL and the Activity [3] is reported as “Activity- clean”. For the same molecule, the MIC [4] was 0.156 µg/mL (≈ 0.128 µM) and the MIC [5] was 1.25 µg/mL (≈ 1.02 µM).
In the case of C/C=C1/NC(=O)[C@H]([C@H](C)O)NC(=O)[C@H](CCN)NC(=O)[C@H](CCCCN)NC(=O)[C@H](CC(=O)O)NC(=O)[C@@H](CCN)NC(=O)[C@@H](NC(=O)C[C@H](O)CCCCCCCCCCC)COC(=O)[C@H]([C@H](O)CCl)NC(=O)[C@H]([C@H](O)C(=O)NCC(=O)OC)NC1=O, the ED50 [1] is reported as > 20 mg/kg, the MIC [2] is reported as > 20 µg/mL and the Activity [3] is reported as “Activity- clean”. For the same molecule, the MIC [4] was 0.08 µg/mL (≈ 0.0626 µM) and the MIC [5] was 2.5 µg/mL (≈ 1.95 µM).
For C/C=C1/NC(=O)[C@H]([C@H](C)O)NC(=O)[C@H](CCN)NC(=O)[C@H](CCCCN)NC(=O)[C@H](CC(=O)O)NC(=O)[C@@H](CCN)NC(=O)[C@@H](NC(=O)C[C@H](O)CCCCCCCCCCC)COC(=O)[C@H]([C@H](O)CCl)NC(=O)[C@H]([C@H](O)C(=O)NC2CC2)NC1=O, the ED50 [1] was > 20 mg/kg, the MIC [2] was > 20 µg/mL and the Activity [3] was “Activity- clean”. For the same molecule, the MIC [4] was 0.312 µg/mL (≈ 0.25 µM) and the MIC [5] was 5 µg/mL (≈ 4.01 µM).
For C/C=C1/NC(=O)[C@H]([C@@H](C)O)NC(=O)[C@H](CCN)NC(=O)[C@H](CCCCN)NC(=O)[C@H](CC(=O)O)NC(=O)[C@@H](CCN)NC(=O)[C@@H](NC(=O)C[C@H](O)CCCCCCCCCCC)COC(=O)[C@H]([C@H](O)CCl)NC(=O)[C@H]([C@H](O)C(=O)NCCCN(C)C)NC1=O, the MIC [2] was > 20 µg/mL, the MIC [4] was 1.25 µg/mL (≈ 0.968 µM) and the MIC [5] was 20 µg/mL (≈ 15.5 µM).
In the case of C/C=C1/NC(=O)[C@H]([C@H](C)O)NC(=O)[C@H](CCN)NC(=O)[C@H](CCCCN)NC(=O)[C@H](CC(=O)O)NC(=O)[C@@H](CCN)NC(=O)[C@@H](NC(=O)C[C@H](O)CCCCCCCCCCC)COC(=O)[C@H]([C@H](O)CCl)NC(=O)[C@H]([C@H](O)C(=O)NCCN(C)C)NC1=O, the ED50 [1] is reported as > 20 mg/kg, the MIC [2] is reported as > 20 µg/mL and the Activity [3] is reported as “Activity- clean”. The MIC [4] was 1.25 µg/mL (≈ 0.978 µM) and the MIC [5] was 5 µg/mL (≈ 3.91 µM).
For C/C=C1/NC(=O)[C@H]([C@H](C)O)NC(=O)[C@H](CCN)NC(=O)[C@H](CCCCN)NC(=O)[C@H](CC(=O)O)NC(=O)[C@@H](CCN)NC(=O)[C@@H](NC(=O)C[C@H](O)CCCCCCCCCCC)COC(=O)[C@H]([C@H](O)CCl)NC(=O)[C@H]([C@H](O)C(=O)O)NC1=O, the MIC [2] was > 20 µg/mL, the MIC [4] was 0.078 µg/mL (≈ 0.0646 µM) and the Activity [6] was “Activity- Positive”. For the same molecule, the MIC [5] was 0.625 µg/mL (≈ 0.517 µM).
C/C=C1\NC(=O)[C@H]([C@H](C)O)NC(=O)[C@H](CCN)NC(=O)[C@H](CCCCN)NC(=O)[C@H](CC(=O)O)NC(=O)[C@@H](CCN)NC(=O)[C@@H](NC(=O)C[C@H](O)CCCCCCCCCCC)COC(=O)[C@H]([C@H](O)CCl)NC(=O)[C@H]([C@H](O)C(=O)NCCC)NC1=O was tested, and the ED50 [1] was 14 mg/kg, the MIC [2] was > 20 µg/mL and the Activity [3] was “Activity- clean”. The MIC [4] was 5 µg/mL (≈ 4 µM) and the MIC [5] was 20 µg/mL (≈ 16 µM).
For C/C=C1/NC(=O)[C@H]([C@H](C)O)NC(=O)[C@H](CCN)NC(=O)[C@H](CCCCN)NC(=O)[C@H](CC(=O)O)NC(=O)[C@@H](CCN)NC(=O)[C@@H](NC(=O)C[C@H](O)CCCCCCCCCCC)COC(=O)[C@H]([C@H](O)CCl)NC(=O)[C@H]([C@H](O)C(=O)NCCO)NC1=O, the MIC [2] was > 20 µg/mL, the Activity [3] was “Activity- clean” and the MIC [4] was 0.625 µg/mL (≈ 0.5 µM). The MIC [5] was 5 µg/mL (≈ 4 µM).
With C/C=C1/NC(=O)[C@H]([C@H](C)O)NC(=O)[C@H](CCN)NC(=O)[C@H](CCCCN)NC(=O)[C@H](CC(=O)O)NC(=O)[C@@H](CCN)NC(=O)[C@@H](NC(=O)C[C@H](O)CCCCCCCCCCC)COC(=O)[C@H]([C@H](O)CCl)NC(=O)[C@H]([C@H](O)C(N)=O)NC1=O the ED50 [1] was > 20 mg/kg, the MIC [2] was > 20 µg/mL and the Activity [3] was “Activity- clean”. For the same molecule, the MIC [4] was < 1 µg/mL and the MIC [5] was 0.312 µg/mL (≈ 0.259 µM).
C/C=C1/NC(=O)[C@H]([C@H](C)O)NC(=O)[C@H](CCN)NC(=O)[C@H](CCCCN)NC(=O)[C@H](CC(=O)O)NC(=O)[C@@H](CCN)NC(=O)[C@@H](NC(=O)C[C@H](O)CCCCCCCCCCC)COC(=O)[C@H]([C@H](O)CCl)NC(=O)[C@H]([C@H](O)C(=O)NCCCC)NC1=O was tested, and the ED50 [1] was > 20 mg/kg, the MIC [2] was > 20 µg/mL and the Activity [3] was “Activity- clean”. It also gave an MIC [4] of 1.25 µg/mL (≈ 0.99 µM) and an MIC [5] of 20 µg/mL (≈ 15.8 µM).
In the case of C/C=C1/NC(=O)[C@H]([C@@H](C)O)NC(=O)[C@H](CCN)NC(=O)[C@H](CCCCN)NC(=O)[C@H](CC(=O)O)NC(=O)[C@@H](CCN)NC(=O)[C@@H](NC(=O)C[C@H](O)CCCCCCCCCCC)COC(=O)[C@H]([C@H](O)CCl)NC(=O)[C@H]([C@H](O)C(=O)NCC)NC1=O, the MIC [2] is reported as > 20 µg/mL, the MIC [4] is reported as 1.25 µg/mL (≈ 1.01 µM) and the MIC [5] is reported as 10 µg/mL (≈ 8.1 µM).
In the case of C/C=C1/NC(=O)[C@H]([C@H](C)O)NC(=O)[C@H](CCN)NC(=O)[C@H](CCCCN)NC(=O)[C@H](CC(=O)O)NC(=O)[C@@H](CCN)NC(=O)[C@@H](NC(=O)C[C@H](O)CCCCCCCCCCC)COC(=O)[C@H]([C@H](O)CCl)NC(=O)[C@H]([C@H](O)C(=O)NC2CCC2)NC1=O, the ED50 [1] is reported as > 20 mg/kg, the MIC [2] is reported as > 20 µg/mL and the Activity [3] is reported as “Activity- clean”. It also gave an MIC [4] of 1.25 µg/mL (≈ 0.991 µM) and an MIC [5] of 5 µg/mL (≈ 3.97 µM).
